Patent publication US20170080049A1, “MEDICINE AGAINST GROWTH FAILURE INDUCED BY ADMINISTRATION OF STEROID” (DAIICHI SANKYO COMPANY, LIMITED, priority 2014, published 2017)

Columns and labels:
[1] = system: rat growth failure induced by dexamethasone; assay: Follow-up administration test of CNP derivative (A) for rat growth failure induced by dexamethasone (Example 4); assay type: in vivo; settings: n=5
Protocol: Osmotic pumps (MINI-OSMOTIC PUMP Model 2004, available from DURECT CORPORATION, flow rate: 0.25 μL/hr, for 28 days) were charged with a 0.67 mg/mL solution of dexamethasone (dexamethasone injection “KS”, available from Kyoritsuseiyaku Corporation), and one osmotic pump was embedded in the hypoderm of the back of each 4-week-old male Crlj:WI (Wistar) rat (5 animals/group, Group 2 and Group 3), and the animals were fed for 14 days. […] During the feeding period, transitions of the body weight, the body length and the tail length were measured, and on the final day, blood was collected from the abdominal aorta and the animal was caused to die under isoflurane anesthesia, the right femur was extracted and its length was measured.

[2] = system: dexamethasone-induced rat growth failure model; assay: Combined administration study of human-type CNP-53 or various CNP derivatives in dexamethasone-induced rat growth failure model (Example 3); assay type: in vivo; settings: dexamethasone 0.67 mg/mL pump alone or combined with 15 mg/mL pump of the CNP peptide, 5-week-old male Wistar rat, n=5
Protocol: Osmotic pumps (MINI-OSMOTIC PUMP Model 2004, available from DURECT CORPORATION, flow rate: 0.25 μL/hr, for 28 days) were charged with 0.67 mg/mL solution of dexamethasone (dexamethasone injection “KS”, available from Kyoritsuseiyaku Corporation) and one osmotic pump was embedded in the hypoderm of the back of each 5-week-old male Crlj:WI (Wistar) rat (5 animals/group, Groups 2 to 6, a total of 25 animals). At the same time, one osmotic pump (the same as above) charged with a 15 mg/mL solution of CNP derivative (A) in Group 3, human-type CNP-53 in Group 4, CNP derivative (B) in Group 5 and CNP derivative (C) in Group 6 was embedded in the hypoderm of the back simultaneously. No substance was administered to the normal control group (Group 1, 5 animals). Then the animals were fed for 28 days, and transitions of the body weight, the body length and the tail length were measured. On the final day, the blood was collected from the abdominal aorta and the animals were caused to die under isoflurane anesthesia, and plasma was separated from the collected blood and the cholesterol concentration was determined by using a “LabAssay (trademark) cholesterol” (available from Wako Pure Chemical Industries, Ltd.). After collecting the blood and causing the animals to die, the right femur and thymus were extracted, and the length of the right femur and the weight of the thymus were measured.

[3] = dexamethasone 0.67 mg/mL pump alone or with CNP derivative (A) 15 mg/mL pump for 28 days from Day 14
[4] = dexamethasone 0.67 mg/mL pump, 4-week-old male Wistar rat, baseline before CNP derivative (A)

## C[C@@H]1C[C@H]2[C@@H]3CCC4=CC(=O)C=C[C@]4(C)[C@@]3(F)[C@@H](O)C[C@]2(C)[C@@]1(O)C(=O)CO [Dexamethasone, dexamethasone]
[1]; dexamethasone 0.67 mg/mL pump 28 days alone or with CNP derivative (A) 15 mg/mL pump for 28 days from Day 14, male Wistar rat
  Body weight at dissection (Day 28 of CNP derivative (A) administration): 308 ± 20 g
[1]; [3]
  Body length at dissection (Day 28 of CNP derivative (A) administration): 204 ± 3 mm
  Body length variation (Δ value) from starting of administration of CNP derivative (A): (30 ± 1) mm
  Body weight variation (Δ value) from starting of administration of CNP derivative (A): (129 ± 9) g
  Right femur length only at dissection: 32.9 ± 0.7 mm
  Tail length at dissection (Day 28 of CNP derivative (A) administration): 202 ± 8 mm
  Tail length variation (Δ value) from starting of administration of CNP derivative (A): (25 ± 7) mm
[1]; dexamethasone 0.67 mg/mL pump, 4-week-old male Wistar rat, baseline before CNP derivative (A), mean ± SD
  Body weight, Day 14 of dexamethasone administration (prior to administration of CNP derivative (A)): 179 ± 12 g
[1]; [4]
  Body length, Day 14 of dexamethasone administration (prior to administration of CNP derivative (A)): 174 ± 4 mm
  Tail length, Day 14 of dexamethasone administration (prior to administration of CNP derivative (A)): 177 ± 7 mm
[2]; 0.25 μL/hr continuous s.c. 28 days, mean ± SD
  Body weight at dissection: 286 ± 17 g
[2]; continuous s.c. 28 days
  Body length at dissection: 199 ± 2 mm
  Body length, variation from preadministration value (Δ value): (23.8 ± 2.4) mm
  Body weight, variation from preadministration value (Δ value): (118 ± 15) g
  Right femur length at dissection: 32.7 ± 0.3 mm
  Tail length at dissection: 202 ± 3 mm
  Tail length, variation from preadministration value (Δ value): (35.2 ± 3.7) mm
  thymus body weight ratio: [0.11 ± 0.02%]
  thymus weight at dissection: 0.36 ± 0.04 g
